For test [1], the species on record is Homo sapiens. Briefly: Binding affinity to MHC class II HLA-DQ2.5 in Epstein-Barr virus-transformed human B lymphocyte.
For test [2], the species on record is Homo sapiens. Kind of test: Ratio of IC50 of peptide P198 for human MHC class II HLA-DQ2.5 to IC50 of peptide for human MHC class II HLA-DQ2.5.

Calls of active or inactive are those of the source. The calls are words filed in the database; no cut-off is given here. Peptide text beside a SMILES is read from it.

Turning to `CC(C)[C@H](NC(=O)[C@H](CCCCN)NC(=O)[C@H](CCC(=O)O)NC(=O)[C@H](C)NC(=O)[C@H](C)NC(=O)[C@@H](N)Cc1ccccc1)C(=O)N[C@@H](CCC(=O)O)C(=O)N[C@@H](CCC(=O)O)C(=O)N[C@@H](Cc1ccccc1)C(=O)N[C@@H](CCCNC(=N)N)C(=O)O` (H-FAAEKVEEFR-OH), in the test filed under Homo sapiens [1], the result was Active.

With `CC(C)C[C@H](NC(=O)[C@H](C)NC(=O)[C@H](C)NC(=O)[C@@H](N)Cc1ccccc1)C(=O)N[C@@H](CCCCN)C(=O)N[C@@H](CCC(=O)O)C(=O)N[C@@H](CCC(=O)O)C(=O)N[C@@H](CCC(=O)O)C(=O)N[C@@H](Cc1ccc(O)cc1)C(=O)N[C@@H](CCCNC(=N)N)C(=O)O` (H-FAALKEEEYR-OH), the result in the test listed under Homo sapiens [1] was Active.

With `CC(C)C[C@H](NC(=O)[C@H](CCC(=O)O)NC(=O)[C@H](CCC(=O)O)NC(=O)[C@H](CCC(=O)O)NC(=O)[C@H](CCCCN)NC(=O)[C@H](CCC(=O)O)NC(=O)[C@H](C)NC(=O)[C@H](C)NC(=O)[C@@H](N)Cc1ccccc1)C(=O)N[C@@H](CCCNC(=N)N)C(=O)O` (H-FAAEKEEELR-OH), in the test filed under Homo sapiens [1], the result was Active. The Ratio IC50 in the test listed under Homo sapiens [2] came to 0.93.

The values are drawn from ChEMBL document CHEMBL1765021, “Assessing high affinity binding to HLA-DQ2.5 by a novel peptide library based approach” (Bioorg Med Chem, 2011).
